No end group written: not given here.
How the values were obtained:
[1] = system: in vitro epithelial tissue model; assay: Papp of drugs with and without PN159, in vitro tissue model; conditions: for Papp: Galantamine 40 mg/mL, pH 5.0
Description: In the present studies, 40 mg/ml galantamine in the lactate salt form was combined with 25, 50, and 100 μM PN159 in solution, pH 5.0 and osmolarity ˜270 mOsm. The combination was tested using an in vitro epithial tissue model to monitor galantamine permeation, transepithelial electrical resistance (TER), and the cytotoxicity of the formulation by LDH and MTT assays as described above. Permeation measurements for galantamine were conducted by standard HPLC analysis, as follows.
Galantamine concentration in the formulation and in the basolateral media (permeation samples) was determined using an isocratic LC (Waters Alliance) method with UV detection. • Column: Waters Symmetry Shield, C18, 5 um, 25×0.46 cm • Mobile phase: 5% ACN in 50 mM ammonium formate, pH 3.0 • Flow rate: 1 ml/min • Column temperature: 30° C. • Calibration curve: 0-400 μg/ml Galantamine HBr • Detection: UV at 285 nm
To evaluate permeabilizing activity in this context, 40 mg/ml galantamine in the lactate salt form was combined with 25, 50, and 100 μM PN159 in solution, pH 5.0 and osmolarity ˜270 mOsm. The combination was tested using an in vitro epithelal tissue model to monitor galantamine permeation, transepithelial electrical resistance (TER), and the cytotoxicity of the formulation by LDH and MTT assays.
For this purpose, in vitro tissue studies were performed on salmon calcitonin as a model therapeutic peptide in the absence and presence of […] PN159.

[2] = Intranasal PYY(3-36) pharmacokinetics in rabbits with various TJMPs (Example 10); type: in vivo, New Zealand White rabbits; conditions: for AUCinf / AUClast / Cmax / T1/2 / Tmax: PYY(3-36) in plasma, 205 μg/kg intranasal with the named TJMP (concentration per Table 11, 50-1000 μM) or PBS, mean; for AUCinf / AUClast / Cmax / T1/2 / Tmax / In Vivo Tier Ranking: rabbit; for In Vivo Tier Ranking: PYY(3-36) 205 μg/kg intranasal, TJMP concentration per Table 11: PN159 50 μM, PN161, PN202 100 μM, PN27 250 μM, PN58, PN73, PN228 500 μM, PN183, PN556 1000 μM; for in vivo permeability relative to PN159: PYY(3-36) intranasal in rabbits, TJMPs at the concentrations tested
Source text: The tubes were chilled until […].

[3] = system: human-derived tracheal/bronchial epithelial cells (EpiAirway™ Tissue model system); assay: Cytotoxicity (LDH assay), EpiAirway tissue model; type: cell-based
Description: The amount of cell death was assayed by measuring the release of lactate dehydrogenase (LDH) from the cells into the apical medium using a CytoTox 96 Cytotoxicity Assay Kit (Promega Corp., Madison, Wis.). One percent Octylphenolpoly (ethyleneglycolether)×(Triton X-100™) diluted in phosphate buffered saline (PBS) causes 100% lysis in cultured cells and served herein as a positive control for the LDH assay. Following the one hour incubation period with a test formulation (refer to Table 4 in Example 2 for details of test formulations), the total liquid volume of each insert was brought to a final volume of 200 μl with culture medium. The apical medium was then mixed by pipetting four times with a multichannel pipette set to a 100 μl volume. After mixing, a 100 μl sample from the apical side of each insert was transferred to a new 96-well plate. The apical media samples were sealed with a plate sealer and stored at room temperature for same day analysis or stored overnight at 4° C. for analysis the next day. To measure LDH levels, 5 μl of the 100 μl apical media sample was diluted in 45 μl DPBS in a new 96-well plate. Fresh, cell-free culture medium will be used as a blank. Fifty microliters of substrate solution was added to each well and incubated for 30 minutes at room temperature away from direct light. Following the 30 minute incubation, 50 μl of stop solution was added to each well. Optical density (OD) was measured at 490 nm with a uQuant absorbance plate reader from Biotek Instruments. The measurement of LDH release into the apical media indicates relative cytotoxicity of the samples. Percent cytotoxicity for each test formulation was calculated by subtracting the measured absorbance of the PBS control (basal level of LDH release) from the measured absorbance of the individual test formulation and then dividing that value by the measured absorbance for the 1% Triton X-100™ positive control, multiplied by 100.
The formula used to calculate percent cytotoxicity is as follows: [formula] Osmolality
Of the total 300 μl volume for each test formulation, only a 20 μl sample was applied to the human-derived tracheal/bronchial epithelial cells (EpiAirway™ Tissue model system) in order to assess the effect each test formulation had on TER, LDH and sample permeation.

Row | Compound | AUCinf [2] | AUClast [2] | Cmax [2] | T1/2 [2] | Tmax [2] | also measured
1 | CC(C)C[C@H](NC(=O)[C@H](CCCCN)NC(=O)CNC(=O)[C@H](CC(C)C)NC(=O)[C@@H](NC(=O)[C@@H]1CSSC[C@H](N)C(=O)N[C@@H](CO)C(=O)N[C@@H](CC(N)=O)C(=O)N[C@@H](CC(C)C)C(=O)N[C@@H](CO)C(=O)N[C@@H]([C@@H](C)O)C(=O)N1)C(C)C)C(=O)N[C@@H](CO)C(=O)N[C@@H](CCC(N)=O)C(=O)N[C@@H](CCC(=O)O)C(=O)N[C@@H](CC(C)C)C(=O)N[C@@H](Cc1c[nH]cn1)C(=O)N[C@@H](CCCCN)C(=O)N[C@@H](CC(C)C)C(=O)N[C@@H](CCC(N)=O)C(=O)N[C@H](C(=O)N[C@@H](Cc1ccc(O)cc1)C(=O)N1CCC[C@H]1C(=O)N[C@@H](CCCNC(=N)N)C(=O)N[C@H](C(=O)N[C@@H](CC(N)=O)C(=O)N[C@H](C(=O)NCC(=O)N[C@@H](CO)C(=O)NCC(=O)N[C@H](C(=O)N1CCC[C@H]1C(N)=O)[C@@H](C)O)[C@@H](C)O)[C@@H](C)O)[C@@H](C)O [Calcitonin, salmon calcitonin] |  |  |  |  |  | fold increase in Papp of calcitonin with PN159 [1]: 23-47 fold
2 | COc1ccc2c3c1O[C@H]1C[C@@H](O)C=C[C@@]31CCN(C)C2 [Galantamine, galantamine] |  |  |  |  |  | fold increase in Papp of galantamine with PN159 ([1]; 40 mg/ml galantamine lactate, pH 5.0, with 25, 50, 100 PN159 versus without): 2.5-3.5 fold; Papp ([1]; [PN159] 0 μM): 21 nm/s; Papp ([1]; [PN159] 0 μM, listed as galantamine): about 2.1×10^−6 cm/s; Papp ([1]; [PN159] 25 μM): 51 nm/s; Papp ([1]; [PN159] 50 μM): 62 nm/s; Papp ([1]; [PN159] 100 μM): 72 nm/s
3 | CC[C@H](C)[C@H](NC(=O)[C@H](CCCCN)NC(=O)[C@@H](NC(=O)[C@H](CCC(N)=O)NC(=O)[C@@H](N)CCCNC(=N)N)[C@@H](C)CC)C(=O)N[C@@H](Cc1c[nH]c2ccccc12)C(=O)N[C@@H](Cc1ccccc1)C(=O)N[C@@H](CCC(N)=O)C(=O)N[C@@H](CC(N)=O)C(=O)N[C@@H](CCCNC(=N)N)C(=O)N[C@@H](CCCNC(=N)N)C(=O)N[C@@H](CCSC)C(=O)N[C@@H](CCCCN)C(=O)N[C@@H](Cc1c[nH]c2ccccc12)C(=O)N[C@@H](CCCCN)C(=O)N[C@@H](CCCCN)C(N)=O [PN58] | 871000 pg·min/mL | 830000 pg·min/mL | 0.0128 µg/mL | 29.5 min | 43.0 min | 
4 | CC[C@H](C)[C@H](NC(=O)[C@H](CCCCN)NC(=O)[C@H](CCCCN)NC(=O)[C@H](C)NC(=O)[C@H](CC(C)C)NC(=O)[C@H](C)NC(=O)[C@H](C)NC(=O)[C@H](CC(C)C)NC(=O)[C@H](C)NC(=O)[C@H](CCCCN)NC(=O)[C@H](CC(C)C)NC(=O)[C@H](CC(N)=O)NC(=O)[C@@H](NC(=O)[C@H](CCCCN)NC(=O)CNC(=O)[C@H](CC(C)C)NC(=O)[C@H](CC(C)C)NC(=O)[C@H](Cc1ccc(O)cc1)NC(=O)CNC(=O)[C@H](C)NC(=O)[C@H](CO)NC(=O)[C@H](CC(N)=O)NC(=O)[C@H](CC(C)C)NC(=O)[C@@H](NC(=O)[C@H](Cc1c[nH]c2ccccc12)NC(=O)CN)[C@@H](C)O)[C@@H](C)CC)C(=O)N[C@@H](CC(C)C)C(N)=O [PN161] | 1.65e+06 pg·min/mL | 1.62e+06 pg·min/mL | 0.0321 µg/mL | 34.3 min | 24.0 min | In Vivo Tier Ranking [2]: I; in vivo permeability relative to PN159 [2]: comparable to PN159
5 | CC[C@H](C)[C@H](NC(=O)[C@H](CCC(=O)O)NC(=O)[C@H](CO)NC(=O)[C@@H](NC(=O)[C@@H](N)CO)C(C)C)C(=O)N[C@@H](CCC(N)=O)C(=O)N[C@@H](CC(C)C)C(=O)N[C@@H](CCSC)C(=O)N[C@@H](Cc1cnc[nH]1)C(=O)N[C@@H](CC(N)=O)C(=O)N[C@@H](CC(C)C)C(=O)NCC(=O)N[C@@H](CCCCN)C(=O)N[C@@H](Cc1cnc[nH]1)C(=O)N[C@@H](CC(C)C)C(=O)N[C@@H](CC(N)=O)C(=O)N[C@@H](CO)C(=O)N[C@@H](CCSC)C(=O)N[C@@H](CCC(=O)O)C(=O)N[C@@H](CCCN=C(N)N)C(=O)N[C@H](C(=O)N[C@@H](CCC(=O)O)C(=O)N[C@@H](Cc1c[nH]c2ccccc12)C(=O)N[C@@H](CC(C)C)C(=O)N[C@@H](CCCN=C(N)N)C(=O)N[C@@H](CCCCN)C(=O)N[C@@H](CCCCN)C(=O)N[C@@H](CC(C)C)C(=O)N[C@@H](CCC(N)=O)C(=O)N[C@@H](CC(=O)O)C(=O)N[C@H](C(=O)N[C@@H](Cc1cnc[nH]1)C(=O)N[C@@H](CC(N)=O)C(=O)N[C@@H](Cc1ccccc1)C(=O)O)C(C)C)C(C)C [PTH1-34, human parathyroid hormone 1-34] |  |  |  |  |  | fold increase in Papp of PTH1-34 with PN159 [1]: 3-5 fold
6 | AAVALLPAVLLALLAPRKKRRQRRRPPQ-NH2 [PN27] | 1.71e+06 pg·min/mL | 1.67e+06 pg·min/mL | 0.0293 µg/mL | 29.9 min | 33.0 min | In Vivo Tier Ranking [2]: I; in vivo permeability relative to PN159 [2]: comparable to PN159
7 | KETWWETWWTEWSQPGRKKRRQRRRRPPQ-NH2 [PN183] | 275000 pg·min/mL | 258000 pg·min/mL | 0.00545 µg/mL | 33.7 min | 22.0 min | 
8 | KLWSAWPSLWSSLWKP-NH2 [PN228] | 1.08e+06 pg·min/mL | 1.06e+06 pg·min/mL | 0.0212 µg/mL | 30.4 min | 31.0 min | 
9 | LRKLRKRLLRLRKLRKRLLR-NH2 [PN745] |  |  |  |  |  | LDH ([3]; 25 μM peptide, 1 h incubation, % of 1% Triton X-100 control): 11%; LDH ([3]; 100 μM peptide, 1 h incubation, % of 1% Triton X-100 control): 28%; LDH ([3]; 250 μM peptide, 1 h incubation, % of 1% Triton X-100 control): 45%; LDH ([3]; 500 μM peptide, 1 h incubation, % of 1% Triton X-100 control): 45%; LDH ([3]; 1000 μM peptide, 1 h incubation, % of 1% Triton X-100 control): 45%
10 | Octylphenolpoly (ethyleneglycolether)× [Triton X-100, reference compound] |  |  |  |  |  | LDH ([3]; 1% Triton X-100, positive (100% release) control): 100%

— patent publication US20070154449A1, “TIGHT JUNCTION MODULATING PEPTIDES FOR ENHANCED MUCOSAL DELIVERY OF THERAPEUTIC COMPOUNDS” (Nastech Pharmaceutical Company Inc., priority 2005, published 2007)
